From patent US9156853B2, “AKT inhibitor compounds for treatment of cancer” (ALMAC DISCOVERY LIMITED, priority 2012, dated 2015)
Where a name gives a salt, the structure may show the parent alone.

How the values were obtained:
AKT1 = target: T1, AKT1 (Homo sapiens, UniProt P31749); assay: AKT Kinase Assay (IMAP fluorescent polarisation), AKT1 isoform; type: biochemical; conditions: for IC50: activated AKT1, FAM Crosstide substrate; for potency against AKT1 compared with the comparator compound: compared with the non-hydroxylated Compound A, F or L
T1 construct: purchased SignalChem
Procedure: (§1) Testing of the compounds was performed using an AKT Kinase Assay:
(§2) Activated AKT isoforms 1, 2 and 3 were assayed utilising a 5′ FAM Crosstide (Seq. GRPRTSSFAEG-OH). The extent of kinase phosphorylation was determined by fluorescent polarisation using IMAP progressive binding reagent, which introduces binding beads which allow the reagent to specifically bind to phosphate residues via covalent co-ordination complex bonds.
(§3) iMAP binding solution stops Crosstide/kinase interaction and specifically binds phosphorylated substrates. The degree of phosphorylation is determined by fluorescent polarisation (excitation 485 nm; emission 528 nm) or the reduction in speed of rotation of the excited substrate.
(§4) The following materials were used in the assay: • a) Activated AKT isoforms (SignalChem.) dissolved in Complete Reaction buffer at a predetermined concentration selected so that the assay was carried out in the linear range. • b) AKT substrate peptide: FAM Crosstide (R7110) Molecular Devices, diluted in complete reaction buffer. • c) iMAP Progressive Screening Express Kit (R8127) Molecular Devices • d) Complete Reaction Buffer containing 0.1% BSA, 10 mM Tris-HCl, 10 mM MgCl2, 0.05% NaN3 and 0.01% phosphate free BSA, 1 mM DTT • e) Progressive Binding Solution containing 75% Buffer A, 25% Buffer B and low volume Binding Reagent which contains the binding entity for the assay • f) ATP diluted in complete reaction buffer • g) Black polystyrene 384 well assay plates (Nunc). • h) Biotek Synergy 4 Hybrid Plate reader.
(§5) 5 μl of test compound was dissolved in DMSO (Sigma Aldrich) and serially diluted in complete reaction buffer to give a fourteen point half log dose response and plated into 384 well black plates. The compound was incubated at room temperature with activated AKT isoform (5 μl) at the predetermined concentration, for 45 min.
(§6) 2.5 μl of ATP solution mixed with 2.5 μl of AKT substrate peptide (FAM Crosstide (R7110) Molecular Devices) were dispensed into each well and the plate centrifuged at 1000 rpm for 20 seconds to ensure homogenous mixing of reagents. The reaction mix was incubated in the dark for 1 h at room temperature.
(§7) The kinase reaction was stopped by the addition of Progressive Binding Solution and the mixture allowed to equilibrate for 1 h in the dark, at room temperature.
(§8) The fluorescent polarisation generated in each well was determined using a […] Synergy 4 Hybrid plate reader. In brief, each reaction solution was excited at 485 nm with the emission measured at 528 nm in both the parallel and perpendicular pathway.
(§9) The polarisation value generated in each well was calculated by Gen5 software (Biotek) and the % inhibition of kinase activity compared to vehicle control was calculated via GraphPad Prism. IC50 values for each compound were calculated by non-linear regression analysis using Prism software.
(§10) All plates were internally controlled by two methods. Firstly, by calculating the signal:noise ratio; based on kinase polarisation without inhibitor and polarisation generated by complete reaction buffer in the absence of activated kinase. Secondly by determining IC50 values generated by known inhibitors of the AKT isoforms.
(§11) The data was analysed using GraphPad Prism, with IC50 values generated using non-linear regression of the data set.

AKT2 = target: T2, AKT2 (Homo sapiens, UniProt P31751); assay: AKT Kinase Assay (IMAP fluorescent polarisation), AKT2 isoform; type: biochemical; conditions: for IC50: activated AKT2, FAM Crosstide substrate; for potency against AKT2 compared with the comparator compound: compared with the non-hydroxylated Compound A, F or L
T2 construct: purchased SignalChem
Procedure: as §1, §2, §3, §4, §5, §6, §7, §8, §9, §10, §11

AKT3 = target: T3, AKT3 (Homo sapiens, UniProt Q9Y243); assay: AKT Kinase Assay (IMAP fluorescent polarisation), AKT3 isoform; type: biochemical; conditions: for IC50: activated AKT3, FAM Crosstide substrate; for potency against AKT3 compared with the comparator compound: compared with the non-hydroxylated Compound A, F or L
T3 construct: purchased SignalChem
Procedure: as §1, §2, §3, §4, §5, §6, §7, §8, §9, §10, §11

[1] = system: pAKT (Ser473) in PC3 cells; assay: Inhibition of pAKT in PC3 cells; type: cell-based; conditions: Homo sapiens, PC-3, 24 h incubation, read-out: inhibition of pAKT in PC3 cell lines, IC50
Procedure: Analysis of Compound Effects on AKT Signalling Pathways: Inhibition of pAKT in PC3 Cells
PC3 cells were seeded overnight in 96 well plates followed by serum starvation for 4 h. Increasing concentrations of AKT inhibitor, in complete medium (RPMI 1640), were added to the cells and incubated for a further 24 h.
The cells were fixed in paraformaldehyde, permeabilised and blocked in BSA, followed by incubation with pAKT (Ser473) and total AKT antibody overnight (R&D Systems). Secondary antibody mixture was added, followed by a combination of fluorescent substrates added for a final incubation.
Fluorescent intensities for each antibody were read at 540/600 nm and 360/450 nm respectively on a Synergy 4 plate reader. The percentage change in fluorescent intensity was plotted against log concentration of inhibitor; to generate IC50 values (GraphPad Prism).

kinases other than AKT1 = assay: SelectScreen kinase panel (Invitrogen); type: biochemical; conditions: for >=80% in Selectscreen (at 10 uM) other than AKT1: number of kinases other than AKT1 with >=80% at 10 uM
Procedure: (§12) SelectScreen® data was determined at Invitrogen. Plasma protein binding and pharmacokinetic analyses were determined using standard protocols.

[2] = Plasma protein binding (fraction unbound, human plasma); type: in vitro ADME
Procedure: as §12

[3] = Pharmacokinetic analysis, half-life in rat; type: in vivo; conditions: for half-life: rat, in vivo, read-out: T½ (rat) h
Procedure: as §12

T2 sequence (P31751 whole entry, canonical isoform): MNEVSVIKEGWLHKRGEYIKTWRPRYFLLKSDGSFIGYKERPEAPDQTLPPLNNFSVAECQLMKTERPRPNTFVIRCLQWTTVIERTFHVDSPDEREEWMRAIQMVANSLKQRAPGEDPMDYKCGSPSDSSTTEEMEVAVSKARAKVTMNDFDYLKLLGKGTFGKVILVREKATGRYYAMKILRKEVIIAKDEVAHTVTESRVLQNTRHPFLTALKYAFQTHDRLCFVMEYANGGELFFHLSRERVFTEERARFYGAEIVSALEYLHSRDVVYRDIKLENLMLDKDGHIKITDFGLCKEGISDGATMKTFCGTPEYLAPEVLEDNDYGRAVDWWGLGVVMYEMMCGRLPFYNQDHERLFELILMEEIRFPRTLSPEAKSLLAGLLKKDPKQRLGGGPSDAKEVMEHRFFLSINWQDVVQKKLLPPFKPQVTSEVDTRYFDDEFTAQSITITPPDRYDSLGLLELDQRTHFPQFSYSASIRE
T1 sequence (P31749 whole entry, canonical isoform): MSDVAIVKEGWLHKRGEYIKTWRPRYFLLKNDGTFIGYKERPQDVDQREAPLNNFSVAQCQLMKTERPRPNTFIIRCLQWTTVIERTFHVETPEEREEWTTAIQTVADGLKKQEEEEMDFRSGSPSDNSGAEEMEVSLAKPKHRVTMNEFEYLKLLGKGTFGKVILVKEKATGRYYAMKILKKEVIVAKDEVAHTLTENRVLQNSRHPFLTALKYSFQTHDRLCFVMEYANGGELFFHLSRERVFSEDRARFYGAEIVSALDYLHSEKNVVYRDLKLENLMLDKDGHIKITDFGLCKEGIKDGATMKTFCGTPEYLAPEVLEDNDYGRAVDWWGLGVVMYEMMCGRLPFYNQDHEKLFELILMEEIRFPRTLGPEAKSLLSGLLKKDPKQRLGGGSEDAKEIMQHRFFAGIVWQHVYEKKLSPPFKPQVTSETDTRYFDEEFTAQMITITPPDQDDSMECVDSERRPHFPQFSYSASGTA
T3 sequence (Q9Y243 whole entry, canonical isoform): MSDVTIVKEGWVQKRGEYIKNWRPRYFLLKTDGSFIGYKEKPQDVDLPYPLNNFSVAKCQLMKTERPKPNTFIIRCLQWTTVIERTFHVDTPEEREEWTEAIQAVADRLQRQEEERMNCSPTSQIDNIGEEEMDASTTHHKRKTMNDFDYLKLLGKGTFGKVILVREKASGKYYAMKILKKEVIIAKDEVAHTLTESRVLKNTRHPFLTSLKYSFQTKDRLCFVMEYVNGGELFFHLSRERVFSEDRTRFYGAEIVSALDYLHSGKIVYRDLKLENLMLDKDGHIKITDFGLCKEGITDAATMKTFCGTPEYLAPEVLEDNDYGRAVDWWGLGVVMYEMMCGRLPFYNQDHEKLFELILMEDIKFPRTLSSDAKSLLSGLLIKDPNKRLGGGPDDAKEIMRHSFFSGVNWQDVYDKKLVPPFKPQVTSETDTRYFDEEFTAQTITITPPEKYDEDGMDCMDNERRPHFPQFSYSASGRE

| IC50 (AKT1) [nM] | potency against AKT1 compared with the comparator compound (AKT1) | IC50 (AKT2) [nM] | potency against AKT2 compared with the comparator compound (AKT2) | IC50 (AKT3) [nM] | potency against AKT3 compared with the comparator compound (AKT3) | IC50 [1] [nM] | >=80% in Selectscreen (at 10 uM) other than AKT1 (kinases other than AKT1) | fraction unbound [2] | unbound fraction (human plasma) compared with Compound A [2] | half-life [3] [h] | T1/2 in rodent compared with Compound A [3] | off-target kinase activity in the SelectScreen panel compared with Compound A (kinases other than AKT1; compared with compound A) | SMILES |
| --- | --- | --- | --- | --- | --- | --- | --- | --- | --- | --- | --- | --- | --- |
| 300 to 1500 | improved potency | ≤ 20 | improved potency | 1000 to 6000 | improved potency | ≤ 500 | * (>2 kinases) | ≥ 0.05 | significantly higher unbound fraction | ≤ 10 | shorter T1/2 | – | C[C@]1(O)C[C@](N)(c2ccc(-c3oc4ncn(CC(F)(F)F)c(=O)c4c3-c3ccccc3)cc2)C1 [Compound 1, 6-(4-((1s,3s)-1-Amino-3-hydroxy-3-methylcyclobutyl)phenyl)-5-phenyl-3-(2,2,2-trifluoroethyl)furo[2,3-d]pyrimidin-4(3H)-one.HCl] |
| 300 to 1500 | improved potency | ≤ 20 | improved potency | 1000 to 6000 | improved potency | ≤ 500 | – | – | – | – | – | – | N[C@]1(c2ccc(-c3oc4ncn(CC(F)(F)F)c(=O)c4c3-c3ccccc3)cc2)C[C@H](O)C1 [Compound 3, 6-(4-((1s,3s)-1-Amino-3-hydroxycyclobutyl)phenyl)-5-phenyl-3-(2,2,2-trifluoroethyl)furo[2,3-d]pyrimidin-4(3H)-one.HCl] |
| ≤ 300 | improved potency | ≤ 20 | improved potency | ≤ 1000 | improved potency | ≤ 500 | ** (1-2 kinases) | – | – | – | – | less off-target kinase activity | C[C@]1(O)C[C@@](N)(c2ccc(-c3oc4ncn(CC(F)(F)F)c(=O)c4c3-c3ccccc3)cc2)C1 [Compound 4, 6-(4-((1r,3r)-1-Amino-3-hydroxy-3-methylcyclobutyl)phenyl)-5-phenyl-3-(2,2,2-trifluoroethyl)furo[2,3-d]pyrimidin-4(3H)-one.HCl] |
| ≤ 300 | improved potency | 20 to 100 | improved potency | 1000 to 6000 | improved potency | ≤ 500 | ** (1-2 kinases) | 0.02 to 0.05 | significantly higher unbound fraction | ≤ 10 | shorter T1/2 | – | C[C@]1(O)C[C@@](N)(c2ccc(-c3sc4ncn(CC(F)(F)F)c(=O)c4c3-c3ccccc3)cc2)C1 [Compound 5, 6-(4-((1r,3r)-1-Amino-3-hydroxy-3-methylcyclobutyl)phenyl)-5-phenyl-3-(2,2,2-trifluoroethyl)thieno[2,3-d]pyrimidin-4(3H)-one.TFA] |
| ≤ 300 | improved potency | ≤ 20 | improved potency | 1000 to 6000 | improved potency | ≤ 500 | *** (0 kinases) | 0.02 to 0.05 | significantly higher unbound fraction | ≤ 10 | shorter T1/2 | – | Cn1c(-c2ccc([C@]3(N)C[C@](C)(O)C3)cc2)c(-c2ccccc2)c2c(=O)n(CC(F)(F)F)cnc21 [Compound 6, 6-(4-((1r,3r)-1-Amino-3-hydroxy-3-methylcyclobutyl)phenyl)-7-methyl-5-phenyl-3-(2,2,2-trifluoroethyl)-3H-pyrrolo[2,3-d]pyrimidin-4(7H)-one.HCl] |
| 300 to 1500 | improved potency | ≤ 20 | improved potency | 1000 to 6000 | improved potency | ≤ 500 | – | – | – | – | – | – | Cn1c(-c2ccc([C@]3(N)C[C@@H](O)C3)cc2)c(-c2ccccc2)c2c(=O)n(CC(F)(F)F)cnc21 [Compound 7, 6-(4-((1s,3s)-1-Amino-3-hydroxycyclobutyl)phenyl)-7-methyl-5-phenyl-3-(2,2,2-trifluoroethyl)-3H-pyrrolo[2,3-d]pyrimidin-4(7H)-one.HCl] |
| > 1500 | – | 20 to 100 | – | > 6000 | – | – | * (>2 kinases) | ≤ 0.02 | – | > 24 | – | – | NC1(c2ccc(-c3oc4ncn(CC(F)(F)F)c(=O)c4c3-c3ccccc3)cc2)CCC1 [Compound A, reference compound] |
